# From US20070149439A1 (priority 2001, published 2007)
# “And” between values parts separate entries of the source, which are not always exact repeats. Identical values can stand only once. Like-named read-outs stand apart in the source and are kept apart here. Where no end group is shown, it is not given here.
# Assays:
# [1] = test system: cerebral cortical precursors of E15.5 rat embryos; assay: [3H]thymidine incorporation (DNA synthesis) in cerebral hemispheres after transuterine intracerebroventricular injection; format: in vivo; details: vs vehicle
# Protocol: Transuterine intracerebroventricular injection. Intraventricular injection was done as described. […] Dye enhancement of the ventricles indicated successful injections.
# Quantification. Newly synthesized DNA was measured after TCA precipitation. Tissues were homogenized in 10 volumes of distilled water. After reserving aliquots to assess total tissue [^3H]dT uptake, DNA was precipitated with 10% TCA, centrifuged, and washed twice in 10% TCA. Pellets were dissolved and counted along with aliquots by scintillation spectrometry.
# PAC1 = target: T1, PAC1 (Homo sapiens, UniProt P41586); details: higher affinity than PACAP6-38; cited from earlier work
# T1 sequence (P41586 21-468): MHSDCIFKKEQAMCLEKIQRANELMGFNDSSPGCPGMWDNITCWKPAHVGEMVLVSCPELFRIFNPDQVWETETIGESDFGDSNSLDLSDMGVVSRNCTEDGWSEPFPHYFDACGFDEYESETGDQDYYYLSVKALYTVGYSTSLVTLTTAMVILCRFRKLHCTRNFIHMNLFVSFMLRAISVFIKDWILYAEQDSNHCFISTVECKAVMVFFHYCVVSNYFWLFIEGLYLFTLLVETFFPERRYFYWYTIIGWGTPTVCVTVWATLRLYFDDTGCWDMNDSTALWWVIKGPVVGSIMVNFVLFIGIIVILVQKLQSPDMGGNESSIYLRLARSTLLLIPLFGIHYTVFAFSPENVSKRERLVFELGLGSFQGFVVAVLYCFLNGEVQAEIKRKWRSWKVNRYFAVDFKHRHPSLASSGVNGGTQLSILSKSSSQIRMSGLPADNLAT
# [2] = test system: cortical precursors in culture; details: cited from earlier work
# [3] = test system: BrdU-labeled precursors in the CP
# Source text: (§1) For BrdU immunohistochemistry, E15.5 and E18.5 tissues were fixed in 4% PFA, paraffin-embedded, and sectioned (4 μm) coronally. E20.5 tissues were perfusion-fixed in 2% PFA, cryoprotected, and sectioned at 15 μm. The tissues were immunostained. Then, the tissues were double-labeled with antibodies to neuron specific markers TuJ1 (1:200, Biogenesis, Poole, United Kingdom), tau (1:200, I. Fischer, Med. Coll. Penn.) and MAP2c (1:2000, I. Fischer) or glial markers, vimentin (1:4, Roche) and GFAP (1:1000, Sigma), visualizing with Texas Red for BrdU and FITC for phenotypic markers. TUNEL assay was done according to the manufacturer (Oncor, Gaithersburg, Md.) on sections adjacent to those used for BrdU.
# (§2) Transuterine intracerebroventricular injection. Intraventricular injection was done as described. Following anesthesia (ketamine 30 mg per kg/xylazine 3 mg per kg) and laparotomy of E15.5 pregnant dams, 1 μl of vehicle or factors and 0.05% fast green was delivered into the embryonic lateral ventricle through the uterine wall, using drawn capillary pipettes. Dye enhancement of the ventricles indicated successful injections. After closure, dams were injected subcutaneously with markers of DNA synthesis, [^3H]dT (4 μCi/g, NEN) and BrdU (100 μg/g) at 3 h and sacrificed at 4 h. One embryonic hemisphere was assayed for [^3H]dT incorporation and the other for immunohistochemistry.
# (§3) For labeling index, the analysis was done in the dorsolateral sector of 3 non-adjacent coronal cortex sections per brain, using a camera lucida (Zeiss, Thornwood, N.Y.) under 400× magnification. For E15.5 sections, BrdU(+) nuclei and total nuclei were scored within a 100 μm×100, μm sector based on the ventricular surface extending to the pial surface. BrdU(+) cells in the CP were counted in centrally located sectors extending 100 μm (E18.5 sections) or 200 μm (E20.5 sections) in the mediolateral dimension.
# [4] = test system: VZ precursors of E15.5 rat cortex
# Source text: as §1, §2, §3
# [5] = injectant volume 1 μl ICV at E15.5, 4 h
compound,measurement,setting,value
M65: newly defined PAC1 antagonist derived from sand fly peptide maxadilan,% Stimulation of DNA synthesis ([3H]dT incorporation),[1]; [5],14% and 13.4 ± 4.6 %
same,% Stimulation of DNA synthesis ([3H]dT incorporation),"[1]; injectant volume 2 μl (twice the dose) ICV at E15.5, 4 h",20% and 20.1 ± 7.0 %
same,affinity for PAC1 relative to PACAP6-38,PAC1,6 fold
PACAP6-38: specific PAC1 antagonist (FTDSYSRYRKQMAVKKYLAAVLGKRYKQRVKNK; ends and bridges not checked),% Stimulation of DNA synthesis ([3H]dT incorporation),[1]; [5],10±2.2%
Pituitary Adenylate Cyclase-Activating Polypeptide [PACAP],"decrease of DNA synthesis, [3H]dT incorporation into cerebral hemispheres","[1]; PACAP 10^-5 M, ICV into E15.5 rat lateral ventricle, four hours later",24%
same,"effect on proliferative effects of mitogenic IGF-I, bFGF and EGF",[2],inhibited proliferative effects
same,less mitotically labeled (BrdU+) cells in the CP,[3]; 3 days (E18.5) after PACAP administration at E15.5,38%
same,less mitotically labeled (BrdU+) cells in the CP,[3]; 5 days (E20.5) after PACAP administration at E15.5,33%
same,"Labeling Index (LI), BrdU(+) nuclei in VZ","[4]; 4 hours after ICV injection at E15.5, n=6/group",26±1.3%
same,decrease of Labeling Index / mitotic labeling,"[4]; 4 hours after ICV injection at E15.5, vs vehicle",25% and 26%
Nc1ncnc2c1ncn2[C@@H]1O[C@@H]2CO[P@@](O)(=S)O[C@H]2[C@H]1O [Rp-cAMPS],% Stimulation of DNA synthesis ([3H]dT incorporation),[1]; [5],28.3 ± 3.1 %
